Test system: human MDR1 P-gp
Test: Efflux in MDCK cells transfected with the human MDR1 gene (MDCK-PGP permeability)
Assay type: in vitro ADME, canine
Conditions: dog, pH 7.4, 37° C.; for efflux ratio: PEBA/PEAB; for Papp A→B: apical-to-basal apparent permeability (PEAB)
Description: Assessment of Efflux in Madin-Darby Canine Kidney (MDCK) Cells Transfected with the 30 Human MDR1 Gene to Assess Brain Penetration (Drug Metabolism and Disposition February 2008, 36 (2) 268-275; DOI: https://doi.org/10.1124/dmd.107.017434) Apparent permeability coefficients (PE) of the compounds across the MDCK-MDR1 cell monolayers are measured (pH 7.4, 37° C.) in apical-to-basal (AB) and basal-to-apical (BA) transport direction. AB permeability (PEAB) represents drug absorption from the blood into the 35 brain and BA permeability (PEBA) drug efflux from the brain back into the blood via both passive permeability as well as active transport mechanisms mediated by efflux and uptake transporters that are expressed on the MDCK-MDR1 cells, predominantly by the overexpressed human MDR1 P-gp. The compounds are assigned to permeability/absorption classes by comparison of the AB permeabilities with the AB permeabilities of reference compounds with known in vitro permeability and oral absorption in the human. Identical or similar permeabilities in both transport directions indicate passive permeation, vectorial permeability points to additional active transport mechanisms. Higher PEBA than PEAB indicates the involvement of active efflux mediated by MDR1 P-gp. Active transport is concentration-dependently saturable.
MDCK-MDR1 cells (1-2×10e5 cells/1 cm2 area) are seeded on filter inserts (Costar transwell polycarbonate or PET filters, 0.4 μm pore size) and cultured (DMEM) for 7 days. Subsequently, the MDR1 expression is boosted by culturing the cells with 5 mM sodium butyrate in full medium for 2 days. Compounds are dissolved in appropriate solvent (like DMSO, 1-20 mM stock solutions). Stock solutions are diluted with HTP-4 buffer (128.13 mM NaCl, 5.36 mM KCl, 1 mM MgSO4, 1.8 mM CaCl2, 4.17 mM NaHCO3, 1.19 mM Na2HPO4×7H2O, 0.41 mM NaH2PO4xH2O, 15 mM HEPES, 20 mM glucose, 0.25% BSA, pH 7.4) to prepare the transport solutions (0.1-300 μM compound, final DMSO <=0.5%). The transport solution (TL) is applied to the apical or basolateral donor side for measuring A-B or B-A permeability (3 filter replicates), respectively. The receiver side contains the same buffer as the donor side. Samples are collected at the start and end of experiment from the donor and at various time intervals for up to 2 hours also from the receiver side for concentration measurement by HPLC-MS/MS or scintillation counting. Sampled receiver volumes are replaced with fresh receiver solution.

SMILES	efflux ratio	Papp A→B [×10⁻⁶ cm/s]
Cc1nnn(-c2ccc(C(F)F)cc2)c1COc1ccc(-n2ccc(C(F)(F)F)n2)nn1 [Example 24]	0.4	51.3
COc1ncc(-c2ccc(OCc3c(C)nnn3-c3ccc(C(F)F)cc3)nn2)cn1 [Example 3]	0.6	59.7
Cc1ncc(-c2ccc(OCc3c(C)nnn3-c3ccc(C(F)F)cc3)nn2)o1 [Example 6]	0.7	67.8
Cc1nnn(-c2ccc(C(F)F)cc2)c1COc1ccc(-n2cc(C(F)(F)F)cn2)nn1 [Example 25]	0.3	56.1
CCn1cc(-c2ccc(OCc3c(C)nnn3-c3ccc(C(F)F)cc3)nn2)cn1 [Example 7]	2.7	17.7
Cc1ncn(-c2ccc(OCc3c(C)nnn3-c3ccc(C(F)F)cc3)nn2)n1 [Example 33]	0.9	52.2
Cc1nnn(-c2ccc(C(F)F)cc2)c1COc1ccc(-n2ccc(C#N)n2)nn1 [Example 20]	0.6	52
Cc1cc(-c2ccc(OCc3c(C)nnn3-c3ccc(C(F)F)cc3)nn2)cnn1 [Example 11]	3.7	18.8
Cc1nnn(-c2ccc(C(F)F)cc2)c1COc1ccc(-c2cncnc2)nn1 [Example 22]	1.1	49.6
Cc1nnn(-c2ccc(C(F)F)cc2)c1COc1ccc(-c2cnn(C3CC3)c2)nn1 [Example 9]	0.8	42.4
Cc1nnn(-c2ccc(C(F)F)cc2)c1COc1ccc(-n2cnc(C[N+](C)(C)C)c2)nn1.O=C([O-])C(F)(F)F [Example 36, ({1-[6-({1-[4-(difluoromethyl)phenyl]-4-methyl-1H-1,2,3-triazol-5-yl}methoxy)pyridazin-3-yl]-1H-imidazol-4-yl}methyl)trimethylazanium trifluoroacetate]	0.5	0.6

Now from value to compound:

efflux ratio	Papp A→B [×10⁻⁶ cm/s]	SMILES
1.1	28.5	Cc1nnn(-c2ccc(C(F)F)cc2)c1COc1ccc(-n2cnc(Cl)c2)nn1 [Example 18]
3.8	14.6	CNC(=O)c1cn(-c2ccc(OCc3c(C)nnn3-c3ccc(C(F)F)cc3)nn2)cn1 [Example 14]
3.4	17.6	CC(=O)c1cn(-c2ccc(OCc3c(C)nnn3-c3ccc(C(F)F)cc3)nn2)cn1 [Example 32]
1.1	31.8	Cc1nnn(-c2ccc(C(F)F)cc2)c1COc1ccc(-n2cnc(C(F)F)c2)nn1 [Example 15]
2.8	18.8	COC(=O)c1cn(-c2ccc(OCc3c(C)nnn3-c3ccc(C(F)F)cc3)nn2)cn1 [Example 29]
0.8	0.7	Cc1nnn(-c2ccc(C(F)F)cc2)c1COc1ccc(-n2cnc(C(=O)O)c2)nn1 [Example 37, 1-[6-({1-[4-(difluoromethyl)phenyl]-4-methyl-1H-1,2,3-triazol-5-yl}methoxy)pyridazin-3-yl]-1H-imidazole-4-carboxylic acid]
1.2	25	Cc1nnn(-c2ccc(C(F)F)cc2)c1COc1ccc(-n2ccc(C(N)=O)n2)nn1 [Example 21]
